“Also recorded” adds a separate entry of the source. Where two headings read alike, the source gives them in different places. Each block holds one molecule with its values, some of them ahead of it.
Columns and labels:
isolated rat aorta = assay: Relaxation of pre-contracted isolated rat aorta; set-up: relaxation as % of the level of relaxation caused by Iloprost: dose or concentration left out as unconfirmed; settings: for relaxation of smooth muscle: aorta pre-contracted with U46619 (25 ng/ml)
Protocol: Rats were euthanized with pentobarbital overdoses. The aorta was isolated and a pre-load of 300-400 mg given. The vessels were pre-contracted with U46619 (25 ng/ml). Relaxation was induced with addition of Iloprost, 5(R/S)-methyl-LXB4, ATLa1, or ATLa2 to a final concentration of […]. Aorta smooth muscle relaxation was measured with a force transducer and the data digitized and stored on a PC. 5(R/S)-methyl -LXB4, ATLa1, and ATLa2 caused 42.8%, 37.0%, 38.1%, and 40.0% relaxation of smooth muscle, respectively. Values represent±SEM (n=4-6).
For example, topical administration of LXA4 ([…]) induces arteriolar dilation in the hamster cheek with no change in venular diameters while systemic delivery into rats produces a vasoconstrictor response in the mesenteric bed (26). In addition, 20 min infusion of 1 or 2 mg/kg LXA4 induces renal vasorelaxation in rats without changing mean arterial pressure (27). To determine whether the increased stability of ATLa2 enhances potential vasoreactivity at the therapeutic dose found to inhibit PMN infiltration in FIGS. 2 and 5, vascular changes in response to ATLa2 were compared directly to those of Iloprost, a prostacyclin stable analog that rapidly stimulates arterial vasodilation (Grant, S. M. & Goa, K. L. (1992) Drugs 43, 899-924). Added to organ baths, ATLa2 relaxed precontracted isolated rat aorta to ˜40% of the level of relaxation caused by equimolar treatment ([…]) with Iloprost (not shown). […] In sharp contrast, injection of equimolar quantities of Iloprost elicited a maximum mean decrease of ˜28 mmHg ˜50 s post-injection, with pressure returning to baseline after ˜8 min.

[1] = Biostability of LX analogs in mouse whole blood; settings: incubated 3 h at 37° C., LC/MS/MS
Protocol: (§1) LXA4 (21 mM) was incubated ex vivo in mouse whole blood for 3 h. […] (B) Biostability of LXA4 and stable analogs in mouse whole blood. LXA4, 15(R/S)-methyl-LXA4 (ATLa1, which carries a racemic methyl group at C-15), and 15-epi-16-(para-fluoro)-phenoxy-LXA4(ATLa2, in which a bulky (para-fluoro)-phenoxy group replaces the w-chain at C-16) were added (see Methods) to heparinized mouse whole blood and incubated at 37° C. for 0 and 3 h. Following centrifugation at 800×g and 0° C., the plasma supernatants were drawn off and stopped in two volumes of ice cold methanol. The lipoxins were extracted by solid phase methodology and quantitated by LC/MS/MS. Values represent means±SEM (n=3-4).
(§2) Biostability of LX analogs in mouse whole blood. […] The methyl formate fractions were taken to dryness with a gentle stream of nitrogen and suspended in methanol for injection and quantitative analyses by UV spectrophotometry and LC/MS/MS.
(§3) LC/MS/MS analyses. […] Samples were suspended in methanol and injected into the HPLC component, which consisted of a SpectraSYSTEM P4000 (Thermo Separation Products, San Jose, Calif.) quaternary gradient pump, a Prodigy octadecylsilane-3 (100×2 mm, 5 mm) column (Phenomenex, Torrance, Calif.) or a LUNA C18-2 (150×2 mm, 5 mm) column, and a rapid spectra scanning SpectraSYSTEM UV2000 (Thermo Separation Products, San Jose, Calif.) UV/VIS absorbance detector. […]

[2] = Biostability in human whole blood; type: in vitro ADME
[3] = tested on: TNF-a-induced PMN infiltration; assay: TNF-a-induced PMN infiltration into mouse dorsal air pouch; type: in vivo; set-up: toxicity to the mice: dose or concentration left out as unconfirmed; settings: for inhibition of TNF-a-induced PMN infiltration, local air pouch delivery: local into air pouch prior to TNF-a (20 ng/mouse), ATLa2 and dexamethasone, ASA 1.0 mg/mouse
Protocol: When injected locally into the air pouch, following injection of vehicle (900 ml PBS), murine TNF-a (20 ng/100 ml PBS) induced the infiltration of 4.8±1.1×10^6 PMN by 4 h. Dexamethasone (10 mg/air pouch), ASA (1 mg/air pouch), and ATLa2 (10 mg/air pouch) were locally administered in 900 ml PBS and prior to TNF-a. Systemic delivery of ATLa2 was by i.v. injection into the mouse tail vein (10 mg/mouse). 2.1±0.7×105 PMN were found in the air pouch 4 h after injection of vehicle (1 ml sterile PBS) alone. Values represent mean±SEM (n=3-5). *P<0.05, †P<0.15 Student's two-tailed t-test
PMN infiltration into mouse air pouch. While male BALB/c mice (6-8 wk) were anesthetized with isoflurane, dorsal air pouches were raised by injecting 3 ml of sterile air subcutaneously on days 0 and 3 (as in ref.) (Sin, Y. M., Sedgwick, A. D., Chea, E. P. & Willoughby, D. A. (1986) Ann. Rheum. Dis. 45, 873-877). On day 6 and while the mice were anesthetized with isoflurane, 10 mg of ATLa2 was delivered as a bolus injection into either the tail vein in 100 ml of sterile 0.9% saline or locally into the air pouch in 900 ml of PBS −/− (Dulbecco's Phosphate Buffered Saline without magnesium or calcium ions, BioWhittaker, Walkersville, Md.). Dexamethasone and ASA (Sigma Chemical Co., St. Louis, Mo.) were delivered locally as 10 mg and 1.0 mg doses in 900 ml of PBS −/−, respectively. Inflammation in the air pouch was induced by local injection of recombinant murine TNF-a (20 ng) (Boehringer Mannheim, Indianapolis, Ind.) dissolved in 100 ml of sterile PBS. While the mice were anesthetized with isoflurane, the air pouches were lavaged twice with 3 ml of sterile PBS 4 h after the initial TNF-a injection. Aspirates were centrifuged at 2000 rpm for 15 min at 23° C. The supernatants were removed and the cells were suspended in […] of PBS. Aliquots of the cell suspension were stained with Trypan Blue and enumerated by light microscopy. 50 ml of the resuspended aspirate cells were added to 150 ml of 30% BSA and centrifuged onto microscope slides at 2200 rpm for 4 min using a Cytofuge (StatSpin, Norwood, Mass.). Slides were allowed to air dry and were stained with Wright Giemsa stain (Sigma Chemical Co., St. Louis, Mo.) for determination of differential leukocyte counts. For microscopic analysis, tissues were obtained with a 6 mm tissue biopsy punch (Acu-Punch, Acuderm, Inc., Ft. Lauderdale, Fla.) and fixed in 10% buffered formaldehyde. Samples were then embedded in paraffin, sliced, and stained with hematoxylin-eosin.

[4] = Methyl ester hydrolysis of ATLa2 to free acid in ex vivo mouse whole blood; type: in vitro ADME; settings: within 10-15 minutes, 2.8 μM in mouse whole blood
Protocol: FIG. 7 represents methyl ester hydrolysis of ATLa2 to free acid in ex vivo mouse whole blood. ATLa2 was incubated ex vivo in mouse whole blood (2.8 μM) for 0, 2, 5, 10, 15, or 180 minutes. The incubations were stopped by chilling the blood on ice for one minute followed by centrifugation (800×g) at 0° C. The plasma supernatant was stopped in 2 vol of ice cold methanol. The samples were prepared for analysis by solid phase extraction and the amount of free acid in the sample was quantiitated by LC/MS/MS. Within 10-15 minutes, 100% of the ATLa2 methyl ester is hydrolyzed to the free acid without loss of compound. Values represent mean±SEM (n=3).

[5] = Mouse arterial pressure after tail vein injection; type: in vivo; set-up: maximum mean decrease in arterial pressure: dose or concentration left out as unconfirmed
Protocol: Mouse arterial pressure was monitored with a pressure transducer via the cannulated carotid artery. […] 10 mg of ATLa2 were injected into 3 mice with no change in mean arterial pressure. Values represent mean±SEM (n=3). Arterial pressure. Male BALB/c mice (6-8 wk, 20 g) were anesthetized with pentobarbital (80 mg/kg). The trachea was isolated and a small polyethylene catheter (PE50) was introduced to maintain a patent airway. The right carotid artery was isolated and cannulated with PE 10 tubing filled with heparinized (10 units/ml) normal saline. The arterial catheter was connected to a pressure transducer (World Precision Instruments, Sarasota, Fla.) and the arterial pressure tracing was recorded continuously (Astromed MT95K2, West Warwick, R.I.). All surgical manipulations were performed using a surgical microscope (Carl Zeiss, Inc., Thomwood, N.Y.).

[6] = male, BALB/c, 3 h, 2.4 mM
Protocol: as §1, §2, §3

[7] = tested on: LTB4-induced PMN infiltration; settings: added topically, in vivo; cited from earlier work

remaining / recoverable in mouse whole blood [1]: ~90%
biostability in human whole blood compared with mouse whole blood [2]: quantitatively similar results
SMILES: CCCCCC(C)(O)/C=C/C=C\C=C\C=C\[C@@H](O)[C@@H](O)CCCC(=O)O (mixture of isomers) [ATLa1, 15(R/S)-methyl-LXA4]
relaxation of smooth muscle (isolated rat aorta): 38.1%

SMILES: CCCCCC(O)C(O)C=CC=CC=CC=CC(C)(O)CCCC(=O)O (racemic) [5(R/S)-methyl-LXB4]
relaxation of smooth muscle (isolated rat aorta): 37.0%

SMILES: CC(=O)Oc1ccccc1C(=O)O [ASA, acetylsalicylic acid, reference compound]
inhibition of TNF-a-induced PMN infiltration, local air pouch delivery ([3]; 4 h): 69%

SMILES: COC(=O)CCC[C@H](O)[C@H](O)/C=C/C=C/C=C\C=C\[C@H](O)COc1ccc(F)cc1 [ATLa2]
ATLa2 methyl ester hydrolyzed to the free acid [4]: 100%
change in mean arterial pressure ([5]; (24 nmol/mouse) tail vein injection): no apparent changes; also recorded: no change
relaxation of smooth muscle (isolated rat aorta): 40.0%
relaxation as % of the level of relaxation caused by Iloprost (isolated rat aorta; organ baths): ~40%
inhibition of TNF-a-induced PMN infiltration, i.v. delivery ([3]; i.v. tail vein before TNF-a (20 ng/mouse), 4 h): 85%
number of neutrophils in tissue lining of the air pouch (histology) ([3]; intra-pouch injection or i.v. prior to TNF-a): reduced
inhibition of TNF-a-induced PMN infiltration, local air pouch delivery ([3]; 4 h): ~77%
toxicity to the mice ([3]; local or i.v.): no apparent toxicity
remaining / recoverable in mouse whole blood [6]: ~100%

SMILES: CC#CCC(C)[C@H](O)/C=C/[C@@H]1[C@H]2C/C(=C/CCCC(=O)O)C[C@H]2C[C@H]1O (stereo partly shown) [Iloprost, reference compound]
time of maximum mean decrease post-injection ([5]; tail vein injection): ~50 s
maximum mean decrease in arterial pressure ([5]; tail vein injection, (equimolar to ATLa2)): ~28 mmHg
relaxation of smooth muscle (isolated rat aorta): 42.8%

SMILES: CCCCC[C@H](O)/C=C/C=C\C=C\C=C\[C@@H](O)[C@@H](O)CCCC(=O)O [LXA4, 5S,6R,15S-trihydroxyeicosa-7E,9E,11Z,13E-tetraenoic acid]
level of inhibition of LTB4-induced PMN recruitment compared to that of either ATLa1 or ATLa2 [7]: less than 25%

SMILES: C[C@@H]1C[C@H]2[C@@H]3CCC4=CC(=O)C=C[C@]4(C)[C@@]3(F)[C@@H](O)C[C@]2(C)[C@@]1(O)C(=O)CO [dexamethasone, reference compound]
inhibition of TNF-a-induced PMN infiltration, local air pouch delivery ([3]; 4 h): 61%
